Test results as given in ChEMBL document CHEMBL4024706 (Eur J Med Chem, 2017).

Legend:
[1] = tested on: Epidermal growth factor receptor (Homo sapiens), P00533 [UNDEFINED MUTATION]; assay: Inhibition of human partial length EGFR S752-I759del mutant expressed in bacterial expression system assessed as residual activity at 1 uM by Kinomescan method relative to control
[2] = tested on: Phosphatidylinositol 4,5-bisphosphate 3-kinase catalytic subunit alpha isoform (Homo sapiens), P42336 [E545A]; assay: Inhibition of human partial length PIK3CA E545A mutant (R108 to N1068 residues) expressed in mammalian expression system assessed as residual activity at 1 uM by Kinomescan method relative to control
[3] = target: Uncharacterized serine/threonine-protein kinase SBK3 (Homo sapiens) (UniProt P0C264); assay: Inhibition of wild-type human partial length SgK110 (L22 to R329 residues) expressed in bacterial expression system assessed as residual activity at 1 uM by Kinomescan method relative to control
[4] = target: Dual specificity mitogen-activated protein kinase kinase 1 (Homo sapiens) (UniProt Q02750); assay: Inhibition of wild-type human full length MEK1 (M1 to V393 residues) expressed in mammalian expression system assessed as residual activity at 1 uM by Kinomescan method relative to control
[5] = target: Mitogen-activated protein kinase 14 (Homo sapiens) (UniProt Q16539); assay: Inhibition of wild-type human full length p38-alpha (M1 to S360 residues) expressed in bacterial expression system assessed as residual activity at 1 uM by Kinomescan method relative to control
[6] = tested on: Tyrosine-protein kinase ABL1 (Homo sapiens), P00519 [H396P]; assay: Inhibition of human non-phosphorylated ABL1 H396P mutant (S229 to K512 residues) expressed in mammalian expression system assessed as residual activity at 1 uM by Kinomescan method relative to control
[7] = target: Serine/threonine-protein kinase 32A (Homo sapiens) (UniProt Q8WU08); assay: Inhibition of wild-type human full length YANK1 (M1 to L396 residues) expressed in mammalian expression system assessed as residual activity at 1 uM by Kinomescan method relative to control
[8] = target: LIM domain kinase 2 (Homo sapiens) (UniProt P53671); assay: Inhibition of wild-type human full length LIMK2 (M1 to P638 residues) expressed in bacterial expression system assessed as residual activity at 1 uM by Kinomescan method relative to control
[9] = target: Leukocyte tyrosine kinase receptor (Homo sapiens) (UniProt P29376); assay: Inhibition of wild-type human partial length LTK (P422 to S744 residues) expressed in bacterial expression system assessed as residual activity at 1 uM by Kinomescan method relative to control
[10] = tested on: Proto-oncogene tyrosine-protein kinase receptor Ret (Homo sapiens), P07949 [V804L]; assay: Inhibition of human partial length RET V804L mutant (E713 to D1014 residues) expressed in bacterial expression system assessed as residual activity at 1 uM by Kinomescan method relative to control
[11] = target: Serine/threonine-protein kinase PAK 3 (Homo sapiens) (UniProt O75914); assay: Inhibition of wild-type human full length PAK3 (M1 to R544 residues) expressed in bacterial expression system assessed as residual activity at 1 uM by Kinomescan method relative to control
[12] = target: Ankyrin repeat and protein kinase domain-containing protein 1 (Homo sapiens) (UniProt Q8NFD2); assay: Inhibition of wild-type human partial length ANKK1 (M1 to A305 residues) expressed in mammalian expression system assessed as residual activity at 1 uM by Kinomescan method relative to control
[13] = target: Cyclin-dependent kinase 13 (Homo sapiens) (UniProt Q14004); assay: Inhibition of wild-type human partial length CDC2L5 (H675 to S1054 residues) expressed in mammalian expression system assessed as residual activity at 1 uM by Kinomescan method relative to control
[14] = target: Phosphorylase b kinase gamma catalytic chain, liver/testis isoform (Homo sapiens) (UniProt P15735); assay: Inhibition of wild-type human partial length PHKG2 (M1 to W300 residues) expressed in bacterial expression system assessed as residual activity at 1 uM by Kinomescan method relative to control
[15] = tested on: Receptor-type tyrosine-protein kinase FLT3 (Homo sapiens), P36888 [R834Q]; assay: Inhibition of human partial length FLT3 R834Q mutant (V592 to Y969 residues) expressed in mammalian expression system assessed as residual activity at 1 uM by Kinomescan method relative to control
[16] = tested on: Phosphatidylinositol 4,5-bisphosphate 3-kinase catalytic subunit alpha isoform (Homo sapiens), P42336 [M1043I]; assay: Inhibition of human partial length PIK3CA M1043I mutant (R108 to N1068 residues) expressed in mammalian expression system assessed as residual activity at 1 uM by Kinomescan method relative to control
[17] = Elimination half-life in Sprague-Dawley rat at 10 mg/kg, po by LC-MS/MS method; assay type: ADME, organism-based; settings: in vivo, read-out: beta t1/2 (converted)
[18] = tested on: Epidermal growth factor receptor (Homo sapiens), P00533 [G719S]; assay: Inhibition of human partial length EGFR G719S mutant (R669 to V1011 residues) expressed in bacterial expression system assessed as residual activity at 1 uM by Kinomescan method relative to control
[19] = target: Inhibitor of nuclear factor kappa-B kinase subunit epsilon (Homo sapiens) (UniProt Q14164); assay: Inhibition of wild-type human full length IKK-epsilon (M1 to V716 residues) expressed in mammalian expression system assessed as residual activity at 1 uM by Kinomescan method relative to control
[20] = target: Serine/threonine-protein kinase D1 (Homo sapiens) (UniProt Q15139); assay: Inhibition of wild-type human partial length PRKD1 (G551 to E870 residues) expressed in bacterial expression system assessed as residual activity at 1 uM by Kinomescan method relative to control
Pfeiffer = assay: Cell cycle arrest in human Pfeiffer cells assessed as increase in accumulation at G0/G1 phase after 48 hrs by propidium iodide/RNase staining based flow cytometric method; assay type: functional
[21] = target: Serine/threonine-protein kinase 17B (Homo sapiens) (UniProt O94768); assay: Inhibition of wild-type human full length DRAK2 (M1 to C372 residues) expressed in bacterial expression system assessed as residual activity at 1 uM by Kinomescan method relative to control
[22] = target: Tyrosine-protein kinase FRK (Homo sapiens) (UniProt P42685); assay: Inhibition of wild-type human partial length FRK (A215 to F503 residues) expressed in bacterial expression system assessed as residual activity at 1 uM by Kinomescan method relative to control
[23] = target: Serine/threonine-protein kinase 16 (Homo sapiens) (UniProt O75716); assay: Inhibition of wild-type human partial length STK16 (G11 to I305 residues) expressed in bacterial expression system assessed as residual activity at 1 uM by Kinomescan method relative to control
[24] = target: Phosphatidylinositol 5-phosphate 4-kinase type-2 gamma (Homo sapiens) (UniProt Q8TBX8); assay: Inhibition of wild-type human partial length PIP5K2C (M1 to A421 residues) expressed in mammalian expression system assessed as residual activity at 1 uM by Kinomescan method relative to control
Homo sapiens = species: Homo sapiens; assay: Inhibition of human partial length FLT3 ITD mutant expressed in bacterial expression system assessed as residual activity at 1 uM by Kinomescan method relative to control

Chain of Serine/threonine-protein kinase 16 (Homo sapiens) (O75716 whole entry, the tested form may be a part): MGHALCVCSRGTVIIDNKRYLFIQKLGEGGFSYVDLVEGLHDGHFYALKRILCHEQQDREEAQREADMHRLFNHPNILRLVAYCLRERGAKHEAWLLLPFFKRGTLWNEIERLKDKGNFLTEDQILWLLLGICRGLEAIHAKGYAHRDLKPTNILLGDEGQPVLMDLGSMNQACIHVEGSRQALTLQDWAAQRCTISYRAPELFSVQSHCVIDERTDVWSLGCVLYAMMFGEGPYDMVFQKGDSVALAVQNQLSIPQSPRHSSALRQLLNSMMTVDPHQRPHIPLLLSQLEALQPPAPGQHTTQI
Chain of Tyrosine-protein kinase FRK (Homo sapiens) (P42685 whole entry, the tested form may be a part): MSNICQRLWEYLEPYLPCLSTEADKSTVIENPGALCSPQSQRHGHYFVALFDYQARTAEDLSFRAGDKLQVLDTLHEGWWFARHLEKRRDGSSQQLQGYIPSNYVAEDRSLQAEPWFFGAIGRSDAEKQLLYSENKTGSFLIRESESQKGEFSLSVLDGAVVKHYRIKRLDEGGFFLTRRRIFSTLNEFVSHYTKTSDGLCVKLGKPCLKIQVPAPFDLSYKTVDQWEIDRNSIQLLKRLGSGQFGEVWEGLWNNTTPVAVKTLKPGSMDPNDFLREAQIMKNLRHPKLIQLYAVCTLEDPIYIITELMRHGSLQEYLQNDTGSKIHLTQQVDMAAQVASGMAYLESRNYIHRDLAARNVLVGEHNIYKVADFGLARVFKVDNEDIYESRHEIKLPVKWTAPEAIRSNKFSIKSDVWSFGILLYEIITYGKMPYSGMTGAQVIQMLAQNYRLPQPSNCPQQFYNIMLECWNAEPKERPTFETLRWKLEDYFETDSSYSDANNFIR
Chain of Serine/threonine-protein kinase 32A (Homo sapiens) (Q8WU08 whole entry, the tested form may be a part): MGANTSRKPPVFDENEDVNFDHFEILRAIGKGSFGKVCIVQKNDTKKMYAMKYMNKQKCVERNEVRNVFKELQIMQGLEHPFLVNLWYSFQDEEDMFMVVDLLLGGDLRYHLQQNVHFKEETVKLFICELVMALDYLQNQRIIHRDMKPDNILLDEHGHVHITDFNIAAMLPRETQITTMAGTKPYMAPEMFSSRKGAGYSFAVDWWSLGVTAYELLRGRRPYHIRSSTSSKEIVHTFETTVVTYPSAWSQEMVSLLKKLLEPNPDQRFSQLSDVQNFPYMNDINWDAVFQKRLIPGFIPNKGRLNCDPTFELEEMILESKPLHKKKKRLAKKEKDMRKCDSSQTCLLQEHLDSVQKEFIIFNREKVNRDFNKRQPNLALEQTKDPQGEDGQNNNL
Chain of Serine/threonine-protein kinase D1 (Homo sapiens) (Q15139 whole entry, the tested form may be a part): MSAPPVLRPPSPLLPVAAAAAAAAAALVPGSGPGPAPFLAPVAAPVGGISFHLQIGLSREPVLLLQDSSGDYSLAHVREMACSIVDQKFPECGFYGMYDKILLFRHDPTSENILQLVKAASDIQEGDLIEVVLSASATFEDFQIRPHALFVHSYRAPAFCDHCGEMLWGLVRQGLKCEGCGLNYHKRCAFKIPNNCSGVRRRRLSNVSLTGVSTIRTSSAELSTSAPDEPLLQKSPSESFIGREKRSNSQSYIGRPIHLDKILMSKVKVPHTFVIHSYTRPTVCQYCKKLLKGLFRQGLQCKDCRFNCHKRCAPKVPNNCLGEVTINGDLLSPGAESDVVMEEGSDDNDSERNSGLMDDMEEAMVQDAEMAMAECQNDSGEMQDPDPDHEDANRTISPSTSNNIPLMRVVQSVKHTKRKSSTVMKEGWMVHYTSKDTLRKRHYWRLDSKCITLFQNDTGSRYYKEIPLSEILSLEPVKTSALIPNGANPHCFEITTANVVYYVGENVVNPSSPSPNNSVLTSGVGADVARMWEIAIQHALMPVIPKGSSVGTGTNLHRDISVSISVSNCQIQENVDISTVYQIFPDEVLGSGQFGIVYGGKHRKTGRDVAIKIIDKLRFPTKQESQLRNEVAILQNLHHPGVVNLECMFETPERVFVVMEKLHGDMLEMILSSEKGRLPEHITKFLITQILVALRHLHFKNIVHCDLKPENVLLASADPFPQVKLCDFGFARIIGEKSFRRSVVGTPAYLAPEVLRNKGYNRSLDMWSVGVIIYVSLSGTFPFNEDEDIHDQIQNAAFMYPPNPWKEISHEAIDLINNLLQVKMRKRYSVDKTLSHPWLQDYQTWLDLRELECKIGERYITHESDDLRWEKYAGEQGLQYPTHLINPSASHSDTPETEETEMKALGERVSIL
Chain of LIM domain kinase 2 (Homo sapiens) (P53671 whole entry, looked up, the tested form may be a part): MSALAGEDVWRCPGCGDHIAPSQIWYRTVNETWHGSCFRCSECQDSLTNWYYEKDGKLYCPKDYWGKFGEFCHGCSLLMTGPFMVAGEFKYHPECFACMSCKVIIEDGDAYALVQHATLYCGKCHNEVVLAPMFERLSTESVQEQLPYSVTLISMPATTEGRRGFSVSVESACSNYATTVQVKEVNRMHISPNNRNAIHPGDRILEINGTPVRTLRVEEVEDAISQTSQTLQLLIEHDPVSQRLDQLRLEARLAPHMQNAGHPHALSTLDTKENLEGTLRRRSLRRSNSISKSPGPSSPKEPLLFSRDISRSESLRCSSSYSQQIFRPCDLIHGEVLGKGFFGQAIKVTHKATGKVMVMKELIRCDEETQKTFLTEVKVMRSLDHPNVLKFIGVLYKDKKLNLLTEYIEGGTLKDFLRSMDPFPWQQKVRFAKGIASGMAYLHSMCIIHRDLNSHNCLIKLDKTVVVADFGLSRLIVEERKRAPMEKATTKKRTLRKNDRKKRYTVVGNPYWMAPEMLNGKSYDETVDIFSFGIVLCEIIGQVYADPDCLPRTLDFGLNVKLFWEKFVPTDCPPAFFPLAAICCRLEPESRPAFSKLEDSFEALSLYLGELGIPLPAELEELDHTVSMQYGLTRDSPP
Chain of Inhibitor of nuclear factor kappa-B kinase subunit epsilon (Homo sapiens) (Q14164 whole entry, the tested form may be a part): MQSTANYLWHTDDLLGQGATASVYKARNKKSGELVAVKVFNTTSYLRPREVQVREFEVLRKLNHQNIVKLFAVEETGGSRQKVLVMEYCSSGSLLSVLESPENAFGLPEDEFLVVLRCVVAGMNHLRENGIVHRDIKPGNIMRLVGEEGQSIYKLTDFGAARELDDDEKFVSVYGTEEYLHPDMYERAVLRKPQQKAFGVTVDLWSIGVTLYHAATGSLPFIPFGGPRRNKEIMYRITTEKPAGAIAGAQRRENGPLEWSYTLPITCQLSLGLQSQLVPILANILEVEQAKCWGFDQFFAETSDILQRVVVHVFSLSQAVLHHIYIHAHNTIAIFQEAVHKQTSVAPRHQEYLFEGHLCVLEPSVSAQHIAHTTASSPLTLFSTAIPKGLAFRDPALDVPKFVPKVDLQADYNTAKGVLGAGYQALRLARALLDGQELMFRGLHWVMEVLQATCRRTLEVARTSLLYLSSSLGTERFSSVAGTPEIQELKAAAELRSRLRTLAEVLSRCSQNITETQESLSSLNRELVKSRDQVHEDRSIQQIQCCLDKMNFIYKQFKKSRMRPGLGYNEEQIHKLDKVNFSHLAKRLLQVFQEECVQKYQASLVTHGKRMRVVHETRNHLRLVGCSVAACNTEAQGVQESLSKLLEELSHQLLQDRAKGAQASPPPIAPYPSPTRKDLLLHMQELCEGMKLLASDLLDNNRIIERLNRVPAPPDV
Chain of Mitogen-activated protein kinase 14 (Homo sapiens) (Q16539 whole entry, the tested form may be a part): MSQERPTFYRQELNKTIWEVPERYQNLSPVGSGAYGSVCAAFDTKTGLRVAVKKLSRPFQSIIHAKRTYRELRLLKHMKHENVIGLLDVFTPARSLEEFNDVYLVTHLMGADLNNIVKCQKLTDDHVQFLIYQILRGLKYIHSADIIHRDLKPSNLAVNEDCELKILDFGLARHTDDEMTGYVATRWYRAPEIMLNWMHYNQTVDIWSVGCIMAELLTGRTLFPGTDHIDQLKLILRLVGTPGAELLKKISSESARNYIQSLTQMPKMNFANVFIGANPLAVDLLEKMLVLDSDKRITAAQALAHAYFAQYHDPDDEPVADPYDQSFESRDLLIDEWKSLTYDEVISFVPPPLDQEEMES
Chain of Ankyrin repeat and protein kinase domain-containing protein 1 (Homo sapiens) (Q8NFD2 whole entry, the tested form may be a part): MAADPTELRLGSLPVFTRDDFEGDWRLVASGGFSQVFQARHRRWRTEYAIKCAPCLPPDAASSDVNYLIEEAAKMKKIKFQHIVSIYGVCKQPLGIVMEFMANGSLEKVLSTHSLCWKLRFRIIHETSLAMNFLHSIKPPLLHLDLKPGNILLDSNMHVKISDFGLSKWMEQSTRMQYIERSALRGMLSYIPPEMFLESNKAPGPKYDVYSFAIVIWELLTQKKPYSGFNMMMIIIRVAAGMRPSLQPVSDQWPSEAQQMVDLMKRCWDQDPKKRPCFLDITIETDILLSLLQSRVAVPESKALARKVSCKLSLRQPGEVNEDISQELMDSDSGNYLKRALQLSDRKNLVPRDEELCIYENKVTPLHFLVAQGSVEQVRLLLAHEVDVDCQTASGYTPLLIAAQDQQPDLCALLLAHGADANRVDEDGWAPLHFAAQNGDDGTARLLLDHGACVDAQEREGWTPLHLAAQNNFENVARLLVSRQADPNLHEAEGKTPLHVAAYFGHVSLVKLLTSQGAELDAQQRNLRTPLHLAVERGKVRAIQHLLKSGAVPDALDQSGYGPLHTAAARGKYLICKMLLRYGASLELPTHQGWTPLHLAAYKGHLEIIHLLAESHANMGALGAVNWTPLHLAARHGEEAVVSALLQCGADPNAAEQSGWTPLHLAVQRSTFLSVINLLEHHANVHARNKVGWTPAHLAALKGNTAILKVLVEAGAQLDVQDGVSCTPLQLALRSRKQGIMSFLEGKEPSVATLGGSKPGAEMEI
Chain of Uncharacterized serine/threonine-protein kinase SBK3 (Homo sapiens) (P0C264 whole entry, the tested form may be a part): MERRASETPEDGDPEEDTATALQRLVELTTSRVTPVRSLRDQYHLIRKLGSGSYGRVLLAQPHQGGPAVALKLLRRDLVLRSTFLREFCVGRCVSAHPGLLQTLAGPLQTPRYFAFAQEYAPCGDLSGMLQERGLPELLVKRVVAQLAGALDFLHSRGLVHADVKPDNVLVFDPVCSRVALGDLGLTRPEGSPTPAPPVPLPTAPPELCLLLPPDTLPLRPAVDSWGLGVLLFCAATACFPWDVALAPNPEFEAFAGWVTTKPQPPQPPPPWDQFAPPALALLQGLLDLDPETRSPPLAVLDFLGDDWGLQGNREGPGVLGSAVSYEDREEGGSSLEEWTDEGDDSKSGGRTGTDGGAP

## C=CC(=O)Nc1cc(Nc2cc(-c3cccc(NC(=O)c4ccc(C(C)(C)C)cc4)c3C)cn(C)c2=O)ccc1C(=O)N1CCOCC1
[1]
  Activity: 97%
[2]
  Activity: 96%
[3]
  Activity: 77%
[4]
  Activity: 100%
[5]
  Activity: 100%
[6]
  Activity: 100%
[7]
  Activity: 83%
[8]
  Activity: 100%
[9]
  Activity: 81%
[10]
  Activity: 100%
[11]
  Activity: 71%
[12]
  Activity: 98%
[13]
  Activity: 100%
[14]
  Activity: 100%
[15]
  Activity: 91%
[16]
  Activity: 100%
[17]
  half-life: 1.33 h
[18]
  Activity: 100%
[19]
  Activity: 100%
[20]
  Activity: 100%
Pfeiffer
  Activity: Dose-dependent effect
[21]
  Activity: 94%
[22]
  Activity: 84%
[23]
  Activity: 99%
[24]
  Activity: 97%
Homo sapiens
  Activity: 90%
